Assays:
GELATINASE = biological target: T1, GELATINASE (Homo sapiens, UniProt P08253); experiment: inhibition of cleavage of fluorogenic peptide DNP-Pro-Leu-Gly-Leu-Trp-Ala-(D)-Arg-NH2 by gelatinase; format: biochemical; details: Human Fibroblast; SE in parentheses
T1 sequence (P08253 110-660): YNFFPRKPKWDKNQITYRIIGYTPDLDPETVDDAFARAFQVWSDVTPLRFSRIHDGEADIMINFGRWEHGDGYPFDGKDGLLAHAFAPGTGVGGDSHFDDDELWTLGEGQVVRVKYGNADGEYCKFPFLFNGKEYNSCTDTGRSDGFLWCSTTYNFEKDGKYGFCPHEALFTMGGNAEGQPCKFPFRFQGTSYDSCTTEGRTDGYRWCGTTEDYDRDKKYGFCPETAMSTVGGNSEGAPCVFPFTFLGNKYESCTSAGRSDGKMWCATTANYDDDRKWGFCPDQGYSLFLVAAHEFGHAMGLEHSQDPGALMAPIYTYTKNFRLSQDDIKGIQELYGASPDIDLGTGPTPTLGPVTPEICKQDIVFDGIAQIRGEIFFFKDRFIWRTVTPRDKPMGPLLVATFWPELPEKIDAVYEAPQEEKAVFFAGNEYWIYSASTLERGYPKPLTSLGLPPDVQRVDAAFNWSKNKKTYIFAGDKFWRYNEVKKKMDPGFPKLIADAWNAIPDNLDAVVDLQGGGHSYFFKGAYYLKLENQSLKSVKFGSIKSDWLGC

COLLAGENASE = biological target: T2, COLLAGENASE (Homo sapiens, UniProt P03956); experiment: inhibition of cleavage of fluorogenic peptide DNP-Pro-Leu-Gly-Leu-Trp-Ala-(D)-Arg-NH2 by collagenase; format: biochemical; details: Human Fibroblast; SE in parentheses where printed
T2 sequence (P03956 100-469): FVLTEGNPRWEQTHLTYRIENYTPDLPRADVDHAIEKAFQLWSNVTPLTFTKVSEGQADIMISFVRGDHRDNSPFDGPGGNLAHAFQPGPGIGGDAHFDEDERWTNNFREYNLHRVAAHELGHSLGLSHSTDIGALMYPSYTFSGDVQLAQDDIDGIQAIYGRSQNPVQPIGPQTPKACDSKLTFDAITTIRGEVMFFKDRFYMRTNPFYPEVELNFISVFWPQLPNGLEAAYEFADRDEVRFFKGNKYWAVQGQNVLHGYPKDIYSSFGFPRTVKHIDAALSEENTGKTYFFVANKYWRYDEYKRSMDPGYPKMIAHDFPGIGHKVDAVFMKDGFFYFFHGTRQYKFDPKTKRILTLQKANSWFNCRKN

[1] = biological target: Human Fibroblast STROMELYSIN (Homo sapiens, UniProt P08254); experiment: biochemical; details: SE in parentheses
Chain of Human Fibroblast STROMELYSIN (P08254 100-477): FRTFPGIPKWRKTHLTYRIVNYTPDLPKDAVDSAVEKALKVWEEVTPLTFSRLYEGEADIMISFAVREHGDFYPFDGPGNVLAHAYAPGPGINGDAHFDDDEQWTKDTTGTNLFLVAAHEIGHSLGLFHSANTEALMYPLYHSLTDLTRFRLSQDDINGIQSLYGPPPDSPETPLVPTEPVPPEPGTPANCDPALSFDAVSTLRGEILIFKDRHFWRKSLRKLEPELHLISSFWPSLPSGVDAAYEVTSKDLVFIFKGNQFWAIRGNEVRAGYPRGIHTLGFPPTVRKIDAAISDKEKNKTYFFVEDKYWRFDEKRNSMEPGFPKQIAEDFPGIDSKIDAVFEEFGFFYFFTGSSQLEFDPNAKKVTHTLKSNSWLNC

[2] = biological target: human rheumatoid synovial collagenase; details: cited from earlier work
[3] = biological target: rabbit bone proteoglycanase; details: cited from earlier work

Row | Compound | Ki (GELATINASE) [µM] | Ki [1] [µM] | Ki (COLLAGENASE) [nM] | IC50 [2] [nM] | IC50 [3] [nM]
1 | CC(C)C[C@H](NC(=O)C(CCc1ccccc1)CP(=O)(O)CCCCN1C(=O)c2ccccc2C1=O)C(=O)Nc1ccccc1 (stereo partly drawn) [(CH2)4 NPhth, (2-(((4-(1,3-Dihydro-1,3-dioxo-2H-isoindol-2-yl)butyl)hydroxyphosphinyl)methyl)-4-phenylbutanoyl)-L-leucine N-phenylamide] | 0.026 | – | 1000 | – | –
2 | CC(=O)N1CCC[C@H]1C(=O)N[C@@H](C)C(=O)N[C@@H](C)P(=O)(O)CC(CCc1ccccc1)C(=O)N[C@@H](CC(C)C)C(=O)Nc1ccccc1 (stereo partly drawn) [(R)CH(CH3)NHAlaProAc, [[Hydroxy[1(R)-[N-(N-acetyl-L-prolyl-L-alanyl)-amino]-ethyl]-phosphinyl]-methyl]-4-phenylbutanoyl-L-leucyl N-phenylamide] | 0.0026 | 0.0061 | 2900 | – | –
3 | CNC(=O)[C@H](Cc1ccc(OC)cc1)NC(=O)[C@H](CC(C)C)NC(CCNC(=O)OCc1ccccc1)C(=O)O (stereo partly drawn) [N-[3-(benzyloxycarbonyl)amino-1-carboxy-n-propyl]-L-leucyl-O-methyl-L-tyrosine, N-methylamide] | – | – | – | 800 | 500

Second part, led by results:

Row | Ki (GELATINASE) [µM] | Ki [1] [µM] | Compound | Ki (COLLAGENASE) [nM] | IC50 [2] [nM] | IC50 [3] [nM]
4 | 0.0056 | 0.022 | CC(C)C[C@H](NC(=O)C(CCc1ccccc1)CP(=O)(O)CCCCNC(=O)NC(C)C)C(=O)Nc1ccccc1 (some centres unmarked) [(CH2)4 NCHCONH-i-C3 H7] | – | – | –
5 | 0.034 | 0.019 | CC(C)COC(=O)NCCCCP(=O)(O)CC(CCc1ccccc1)C(=O)N[C@@H](CC(C)C)C(=O)Nc1ccccc1 (some centres unmarked) [(CH2)4 NCO2 -i-C4 H4] | – | – | –
